Patent US20070015138A1, “Methods for identifying agents and conditions that modulate neurogenesis” (BrainCells, Inc., priority 2005, published 2007)
Entries after “also recorded” stand apart in the source; their conditions may differ. Like-named read-outs stand apart in the source and are kept apart here.

Key:
[1] = test system: cultured human neural stem cells (hNSCs); test: Automated differentiation assay using monolayer cultures, neuronal lineage (Tuj1 staining per Hoechst-counted cell); type: cell-based; settings: for concentration at which the agent by itself affected neuronal differentiation / effect on differentiation along a neuronal lineage, agent by itself: no constitutive factor; for effect on differentiation along a neuronal lineage, agent by itself: normalized to neuronal positive control; for effect on neuronal differentiation, AMPA combined with M6: AMPA about 3 nM to about 10 μM plus 10 μM M6 (cyclo-(Pro-Gly)), FIG. 5; for EC50: Homo sapiens, Neural stem cell
Procedure: (§1) Cells were cultured in mitogen free test media or exposed to differentiating agents as described herein immediately upon plating of cells. Stable, differentiation-compatible culture may be used with automated equipment (like Perkin Elmer Evolution P3, Perkin Elmer Multiprobe II Plus and Bio-Tek ELx405 Select CW as non-limiting examples) to replace 50% of media with newly prepared media and differentiation agent between 3 to 4 days after commencement of the experiment.
(§2) Measurement of the resulting NSC differentiation may be performed by fixation and staining as described herein and subsequent use of automated equipment (InCell Analyzer high throughput imaging system) to take multiple pictures per well, at multiple wavelengths. Quantification of neuronal differentiation was performed by measuring the amount of Tuj1 staining and dividing the number by the number of cells as determined through automated counting of Hoechst stained cell nuclei. Quantification of astocytic differentiation was performed by measuring the amount of GFAP staining and dividing the number by the number of cells as determined through automated counting of Hoechst stained cell nuclei. […] An agent's effect on astrocyte or oligodendrocyte differentiation can be determined in a similar manner using other cell type specific antibodies, examples of which include GFAP (astrocytes), NF-200 (neurons), and O1 and O4 (oligodendrocytes).

[2] = test system: cultured human neural stem cells (hNSCs); test: Automated differentiation assay using monolayer cultures, astrocyte lineage (GFAP staining per Hoechst-counted cell); type: cell-based; settings: for effect on differentiation along an astrocyte lineage (astrogenesis), agent alone: normalized to astrocyte positive control
Procedure: as §1, §2

[3] = test system: Human NSCs plated as monolayers
Procedure: Human NSCs maintained as neurospheres are plated as monolayers on laminin/poly-L-lysine coated plates and assayed for proliferation and/or differentiation, as described in Examples 3 and 4, except that the test media is modified to include one or more neurotransmitters at various concentrations to facilitate detection of neurogenesis modulating agents. […] Proliferation is measured as the mean cell intensity per microscopic field of view, with the mean cell intensity for control experiments subtracted. Data is plotted as a dose response curve of dopamine with and without 2 independent concentrations of 5-HTP.

[4] = test system: human NSCs cultured as monolayers in 96-well plates; settings: DMSO vehicle max 0.3%, FIG. 8
Procedure: Briefly, cells were cultured as described in Example 5 with the presence of histamine. The histamine was dissolved in DMSO as a vehicle, and cells were exposed to a maximum concentration of 0.3% vehicle. Cell number was determined by fixation and exposure of cells to Hoechst stain. Image acquisition was automated with the use of an InCell Analyzer 1000, and the number of cells determined by automated counting of stained nuclei. […] (see FIG. 8).
Toxic effects of agents can be determined in a similar manner. NSCs were exposed to BAY-60-7550 as described above and cell number was quantified.

[5] = test system: human NSCs in monolayer culture; test: Automated proliferation (growth or trophism) assay using monolayer cultures, test media with mitogens; type: cell-based; settings: control conditions, across a range of concentrations; FIG. 1B
Procedure: Sterile, tissue culture treated, clear bottom 96-well plates (e.g., Costar 3712) are coated 10 μg/ml poly-L-lysine and 50 μg/ml mouse Laminin, as described in Example 2. 10-15 neurospheres in maintenance media (see, Example 2) are transferred (estimated at 100,000 cells/sphere) to an eppendorf tube and enzymatically dissociated as described in Example 2. Approximately 50,000 cells are plated per 100 μl/well. The cells are allowed to attach by incubating for approximately one hour, and 100 μl/well of test compounds are added. […] Compounds are prepared using Perkin-Elmer MultiPROBE II PLUSHT EX (Protocol 8-point HumanCRC96-well) in test media (30% Hams F12 (Gibco 11765-062), 70% DMEM (Gibco 11965-118), 1% PSA (Gibco-BRL 15420-062), 1% N2 (Gibco-BRL 17502-048), 20 ng/ml EGF (Sigma E9644), 10 ng/ml LIF (Chemicon LIF100), 20 ng/ml bFGF (R and D 233-FB) and 5 μg/ml heparin (Sigma H3149)).
Each plate contains controls containing test media (positive control) and test media without growth factors (negative control). Plates are incubated at 37° C. and 5% CO2 for a total of 7 days. At day 4, the cell plates are aspirated and fresh compound/media is added. After incubation, the wells are washed 1× with 0.1M Tris-Buffered Saline (TBS), and incubated at room temperature for 30 minutes with 100 μl/well of Fixing/Nuclear staining solution (8 μg/ml Hoechst 33342 and 3.7% Formaldehyde in 0.1M TBS). […]

Compound: N[C@@H](Cc1c[nH]c2ccc(O)cc12)C(=O)O [5-HTP, 5-Hydroxy L tryptophan]
- concentration at which the agent by itself affected neuronal differentiation [1]: ≥ 4 µM
- effect on differentiation along a neuronal lineage, agent by itself [1]: increased differentiation of NSCs into neurons; also recorded: significantly enhanced neuronal differentiation

Compound: Cc1onc(O)c1CC(N)C(=O)O (stereo not drawn) [AMPA, alpha-amino-3-hydroxy-5-methyl-4-isoxazolepropionic acid]
- effect on neuronal differentiation, AMPA combined with M6 [1]: significantly enhanced levels of neuronal differentiation
- concentration at which the agent by itself affected neuronal differentiation [1]: about 30 μM
- effect on differentiation along a neuronal lineage, agent by itself [1]: only a slight effect

Compound: C[C@]12CC[C@H](O)CC1=CC[C@@H]1[C@@H]2CC[C@]2(C)C(=O)CC[C@@H]12 [DHEA]
- effect on differentiation along a neuronal lineage, agent by itself [1]: promotes differentiation

Compound: CC(N)Cc1ccccc1 (stereo not drawn) [amphetamine]
- EC50 ([1]; plus 10 μM dopamine, FIG. 2B, read-out: EC50, neuronal differentiation in combination with dopamine): ~30 µM
- effect on differentiation along a neuronal lineage, agent by itself [1]: did not have a significant effect
- effect on neuronal differentiation in combination with dopamine as constitutive factor ([1]; plus 10 μM dopamine): significantly enhanced neuronal differentiation

Compound: O=C1CC2(CCCC2)CC(=O)N1CCCCN1CCN(c2ncccn2)CC1 [buspirone]
- effect on differentiation along a neuronal lineage, agent by itself [1]: promotes differentiation into both neurons and astrocytes
- effect on differentiation along an astrocyte lineage (astrogenesis), agent alone [2]: promotes differentiation into both neurons and astrocytes

Compound: NCCc1ccc(O)c(O)c1 [dopamine]
- concentration at which the agent by itself affected neuronal differentiation [1]: ≥ 1 µM
- effect on differentiation along a neuronal lineage, agent by itself [1]: minor effect; also recorded: only a slight effect
- effect on differentiation along a neuronal lineage, agent by itself ([1]; listed as Dopamine): did not promote differentiation
- effect on neuronal differentiation in combination with 5-HTP as constitutive factor ([1]; plus 10 μM or 30 μM 5-HTP, FIG. 4B): concentration-dependent increase in NSC differentiation; also recorded: significantly enhanced neuronal differentiation
- effect on NSC proliferation (mean cell intensity) with 10 μM 5-HTP ([3]; in the presence of 10 μM 5-HTP): substantially enhanced
- effect on NSC proliferation (mean cell intensity) with 30 μM 5-HTP ([3]; in the presence of 30 μM 5-HTP, particularly at higher test agent concentrations): further enhanced
- effect on NSC proliferation (mean cell intensity), test agent alone ([3]; media-only background subtracted): small dose-dependent effect

Compound: NCCc1c[nH]cn1 [histamine]
- cell proliferation / cell growth (cell number), trophic effect [4]: promotes increased cell proliferation
- cell proliferation / cell growth (cell number), trophic effect ([4]; listed as Histamine): promoted cell growth in a concentration-dependent manner

Compound: COc1ccc2[nH]cc(CCNC(C)=O)c2c1 [melatonin]
- effect on neuronal differentiation, buspirone with melatonin ([1]; increasing melatonin added to buspirone concentration-response curve, FIG. 11 upper panel): differentiation into neurons is preserved
- effect on astrocyte differentiation, buspirone with melatonin ([2]; increasing melatonin added to buspirone concentration-response curve, FIG. 11 lower panel): repression of astrocytes
- effect on differentiation along an astrocyte lineage (astrogenesis), agent alone [2]: no effect on astrogenesis

Compound: COC(=O)C(c1ccccc1)C1CCCCN1 (stereo not drawn) [methylphenidate]
- concentration at which the agent by itself affected neuronal differentiation [1]: greater than 1 μM
- effect on differentiation along a neuronal lineage, agent by itself [1]: only a slight effect
- effect on neuronal differentiation in combination with dopamine as constitutive factor ([1]; plus 10 μM dopamine): significantly enhanced the degree of neuronal differentiation

Compound: CN1CC[C@]23c4c5ccc(O)c4O[C@H]2[C@@H](O)C=C[C@H]3[C@H]1C5 [morphine]
- effect on DHEA-driven normal NSC neuronal differentiation (NSC monolayer culture; simultaneous exposure with DHEA): inhibition of normal NSC differentiation

Compound: O=C1CC[C@@]2(O)[C@H]3Cc4ccc(O)c5c4[C@@]2(CCN3CC2CC2)[C@H]1O5 [naltrexone]
- toxicity or proliferation (cell number dose-response) [5]: non-neurogenic (non-tropic) and non-toxic; also recorded: neither toxic nor trophic
- rescue of morphine-inhibited neuronal differentiation (NSC monolayer culture; cells exposed to both morphine and naltrexone, FIG. 10): rescue of neurogenesis; also recorded: rescues opioid-induced inhibition

Compound: NC[C@H](O)c1ccc(O)c(O)c1 [norepinephrine]
- EC50 ([1]; mean of two independent experiments, FIG. 3A, read-out: EC50, neuronal differentiation, agent by itself): ~4 µM
- effect on differentiation along a neuronal lineage, agent by itself [1]: significantly enhanced neuronal differentiation
- effect on differentiation along an astrocyte lineage (astrogenesis), agent alone [2]: no effect

Compound: cyclo(Pro-Gly) [M6]
- effect on neuronal differentiation, AMPA combined with M6 [1]: potentiates AMPA activity
